Reference: US20180282734A1, “METHODS AND COMPOSITIONS FOR THE TREATMENT OF HEAD AND NECK CANCER” (Children's Hospital Medical Center, priority 2015, published 2018)

Experiments:
IRAK1 = molecular target: T1, IRAK1 (Homo sapiens, UniProt P51617); assay: Western blot for phospho-IRAK1 after IRAK-1/4 inhibitor treatment (time course); type: cell-based; conditions: UMSCC1 and UMSCC47 cells
T1 construct: endogenous in cells; host or cells: UMSCC1 and UMSCC47
Method: Western blotting. Whole cell lysates were harvested using Laemmli buffer and a total of 20 μg of protein was analyzed as described previously. Membranes were probed with DEK (1:1000, BD Biosciences, San Jose, Calif., USA), IRAK1 (1:1000, Santa Cruz Biotechnology, Dallas, Tex., USA (sc-7883)), TRAF6 (1:1000, Santa Cruz (sc-7221)), phospho-IRAK1 (Thr209, 1:800, Assay Biotechnology Company (A1074), Sunnyvale, Calif., USA), phospho-p38 (1:500, Cell Signaling Technologies (4361)), p38 (1:1000, Cell Signaling Technologies (9212)), phospho-ERK1/2 (1:1000, Cell Signaling Technologies (4377)), ERK1/2 (1:1000, Cell Signaling Technologies (4695)), phospho-IKKa/r3 (1:500, Cell Signaling Technologies (2697)), IKKa (1:1000, Cell Signaling Technologies (2682)), phospho-hcBa (1:500, Cell Signaling Technologies (9246)), hcBa (1:1000, Cell Signaling Technologies (4812)), a-tubulin-HRP (1:10,000 Cell Signaling Technologies (9099)), actin (1:10,000 a gift from James Lessard), and GAPDH (1:1000, Cell Signaling Technologies (5174)).
IRAK1 inhibitor. […]
Cells and media were collected 72 hours later and prepared and analyzed as above. For the time-course experiment, cells were plated and inhibitor was added the following day, with protein collected at 24, 48, and 72 hours and analyzed by western blot for IRAK1 inhibition.

UMSCC1 cells = assay: Flow cytometry for cleaved caspase-3 after IRAK1 inhibitor; type: cell-based, human; conditions: 72 hours, vs DMSO
Method: Flow cytometry for Cleaved Caspase-3. Lentivirally transduced cells were plated at equal densities and collected 48 hours later. Cells were fixed and prepped following the BD FITC Active Caspase-3 Apoptosis kit protocol (BD Biosciences). […] Analysis was performed on a BD FacsCanto and data analyzed on FlowJo software (Tree Star, Ashland, Oreg., USA). Experiments were performed 3 times with standard error of the mean (SEM) represented. IRAK1 inhibitor. UMSCC1 cells were plated at equal densities and IRAK1 inhibitor (IRAK-1/4 inhibitor, 15409, Sigma-Aldrich, St. Louis, Mo., USA) added the same day for caspase-3 flow cytometry experiments. DMSO was added in equal volume for a control. Cells and media were collected 72 hours later and prepared and analyzed as above. For the time-course experiment, cells were plated and inhibitor was added the following day, with protein collected at 24, 48, and 72 hours and analyzed by western blot for IRAK1 inhibition.

melanoma cells = conditions: in vitro and in vivo; cited from earlier work
MDS = conditions: cited from earlier work
IRAK1 and IRAK4 = conditions: cited from earlier work

T1 sequence (P51617 whole entry): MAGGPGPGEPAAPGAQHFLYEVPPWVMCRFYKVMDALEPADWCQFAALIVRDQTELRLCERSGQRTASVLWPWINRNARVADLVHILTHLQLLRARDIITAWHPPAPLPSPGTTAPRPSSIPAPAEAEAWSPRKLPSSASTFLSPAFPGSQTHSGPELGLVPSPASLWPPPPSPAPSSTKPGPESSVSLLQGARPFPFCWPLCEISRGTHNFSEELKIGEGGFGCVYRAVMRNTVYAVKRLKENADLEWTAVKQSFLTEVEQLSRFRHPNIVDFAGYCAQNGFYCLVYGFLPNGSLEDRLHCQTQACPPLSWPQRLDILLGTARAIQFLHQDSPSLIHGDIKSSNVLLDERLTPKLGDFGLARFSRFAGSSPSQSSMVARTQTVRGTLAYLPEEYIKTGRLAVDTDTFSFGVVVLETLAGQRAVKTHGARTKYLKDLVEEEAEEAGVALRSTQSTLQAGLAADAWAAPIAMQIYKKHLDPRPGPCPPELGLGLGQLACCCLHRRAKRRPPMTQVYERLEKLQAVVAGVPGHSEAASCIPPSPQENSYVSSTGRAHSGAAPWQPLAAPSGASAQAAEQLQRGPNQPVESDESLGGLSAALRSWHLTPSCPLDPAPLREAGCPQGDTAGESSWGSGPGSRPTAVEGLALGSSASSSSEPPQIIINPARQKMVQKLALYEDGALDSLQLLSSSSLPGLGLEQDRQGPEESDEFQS

- IRAK1 activation (phosphorylation of IRAK1, western blot) (IRAK1; 1 μM or 10 μM final concentrations, indicated time-points, vs DMSO): reduces IRAK1 activation
- activation of IRAK1 (phosphorylation of IRAK1, western blot) (IRAK1; 10 μM, 24-72 hours post-treatment): attenuated activation of IRAK1
Compound: O=C(Nc1nc2ccccc2n1CCN1CCOCC1)c1cccc([N+](=O)[O-])c1 [IRAK-1/4 inhibitor, N-(2-morpholinylethyl)-2-(3-nitrobenzoylamido)-benzimidazole]
- apoptosis (cleaved caspase-3) (UMSCC1 cells): Significantly increased apoptosis
- apoptosis (cleaved caspase-3) (UMSCC1 cells; listed as IRAK1-inhibitor): increases apoptosis
- apoptosis in melanoma cells (melanoma cells): increase apoptosis
- signaling and cell viability in MDS (MDS): inhibit signaling and cell viability
- kinase selectivity (IRAK1 and IRAK4): selective for IRAK1 and IRAK4 and shows little specificity for other kinases
